Data published in patent publication US8080529B2, “Macrolides with anti-inflammatory activity” (Glaxo Group Limited, priority 2005, dated 2011).
Like-named read-outs stand apart in the source and are kept apart here.

Assays:
[1] = system: IL-6; assay: Inhibition of IL-6 production by stimulated human peripheral blood leukocytes in vitro; assay type: cell-based; settings: for inhibition at 10 µM / inhibition at 50 µM: Homo sapiens, Leukocyte, read-out: Percentage of inhibition of IL-6 production
How it was run: (§1)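 Cytokines in supernatants measured by sandwich ELISA after overnight stimulation (2 μg/mL LPS, 1 μg/mL PMA or 120 μg/mL zymosan) of healthy-donor leukocytes pretreated 2 h with 10 or 50 μM compound. Percent inhibition calculated relative to stimulated cells lacking compound.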

[2] = system: TNF-α; assay: Inhibition of TNF-α production by stimulated human peripheral blood leukocytes in vitro; assay type: cell-based; settings: for inhibition at 10 µM / inhibition at 50 µM: Homo sapiens, Leukocyte, read-out: Percentage of inhibition of TNF-α production
How it was run: as §1

[3] = system: A549; assay: Cytotoxicity assay (MTT), A549 cell line; assay type: cell-based; settings: 24 h
How it was run: (§2)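 Viability was read as MTT-formazan absorbance at 490 nm after 0.5-2 h with reagent. This followed 24 h compound exposure (50 μM, 12.5 μM) at 37° C in RPM medium. Result expressed as OD490 treated over untreated cells ×100.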

[4] = system: IL-8; assay: Inhibition of IL-8 production by stimulated human peripheral blood leukocytes in vitro; assay type: cell-based; settings: for inhibition at 10 µM / inhibition at 50 µM: Homo sapiens, Leukocyte, read-out: Percentage of inhibition of IL-8 production
How it was run: as §1

[5] = system: IL-1α; assay: Inhibition of IL-1 production by stimulated human peripheral blood leukocytes in vitro; assay type: cell-based; settings: for inhibition at 10 µM / inhibition at 50 µM: Homo sapiens, Leukocyte, read-out: Percentage of inhibition of IL-1α production
[6] = system: Hep G2; assay: Cytotoxicity assay (MTT), Hep G2 cell line; assay type: cell-based; settings: 24 h
How it was run: as §2

[7] = system: human peripheral blood mononuclear cells (PBMC); assay: Effects on human T-cell proliferation in vitro (3H-thymidine incorporation); assay type: cell-based; settings: for inhibition at 10 µM / inhibition at 50 µM: Homo sapiens, PBMC, read-out: Percentage of inhibition of proliferation of stimulated PBMC
Method: The influence of the various test compounds at two different concentrations (50 μM and 10 μM) on cell proliferation of human peripheral blood mononuclear cells (PBMC) was assessed. […] The cells were pulsed with 1 μCi of ^3H-thymidine (Amersham, USA) per well during the last 18 h of the culture, and were harvested on the 96-well filter (Packard Bioscience, USA) using a multiple cell harvester (Packard, USA). The incorporation of ^3H-thymidine in activated cells were measured using TopCount NXT (Packard, USA). […] The positive control refers to LPS-, PMA- or zymosan-stimulated samples that were not treated with test compounds.

[8] = system: TNF-α; assay: Lipopolysaccharide induced TNF-α production in Balb/cJ mice; assay type: in vivo; settings: 10 mg/kg intraperitoneally, 30 min before LPS; 90 min after LPS

CC[C@H]1OC(=O)[C@H](C)[C@@H](O[C@H]2C[C@@](C)(OC)[C@@H](OC(=O)CCN(CC)CC)[C@H](C)O2)[C@H](C)[C@@H](O[C@@H]2O[C@H](C)C[C@H](N(C)C)[C@H]2O)[C@](C)(OC)C[C@@H](C)NC(=O)[C@H](C)[C@@H](O)[C@]1(C)O [Example 3, 4″-O-(3-Diethylamino-Propionyl)-6-O-methyl-8a-aza-8a-homoerythromycin A]
inhibition at 10 µM ([1]; 10 μM, LPS-stimulated PBL): 56% | inhibition at 10 µM ([1]; 10 μM, PMA-stimulated PBL): 60% | inhibition at 10 µM ([1]; 10 μM, zymosan-stimulated PBL): 44% | inhibition at 50 µM ([1]; 50 μM, LPS-stimulated PBL): 78% | inhibition at 50 µM ([1]; 50 μM, PMA-stimulated PBL): 66% | inhibition at 50 µM ([1]; 50 μM, zymosan-stimulated PBL): 74% | inhibition at 10 µM ([2]; 10 μM, LPS-stimulated PBL): 72% | inhibition at 10 µM ([2]; 10 μM, PMA-stimulated PBL): 91% | inhibition at 10 µM ([2]; 10 μM, zymosan-stimulated PBL): 76% | inhibition at 50 µM ([2]; 50 μM, LPS-stimulated PBL): 81% | inhibition at 50 µM ([2]; 50 μM, PMA-stimulated PBL): 83% | inhibition at 50 µM ([2]; 50 μM, zymosan-stimulated PBL): 96% | Percentage of inhibition of cell growth ([3]; 12.5 μM): 0% | Percentage of inhibition of cell growth ([3]; 50 μM): 0% | inhibition at 10 µM ([4]; 10 μM, LPS-stimulated PBL): 48% | inhibition at 10 µM ([4]; 10 μM, PMA-stimulated PBL): 30% | inhibition at 10 µM ([4]; 10 μM, zymosan-stimulated PBL): 32% | inhibition at 50 µM ([4]; 50 μM, LPS-stimulated PBL): 71% | inhibition at 50 µM ([4]; 50 μM, PMA-stimulated PBL): 22% | inhibition at 50 µM ([4]; 50 μM, zymosan-stimulated PBL): 16% | inhibition at 10 µM ([5]; 10 μM, LPS-stimulated PBL): 87% | inhibition at 10 µM ([5]; 10 μM, PMA-stimulated PBL): 73% | inhibition at 10 µM ([5]; 10 μM, zymosan-stimulated PBL): 88% | inhibition at 50 µM ([5]; 50 μM, LPS-stimulated PBL): 86% | inhibition at 50 µM ([5]; 50 μM, PMA-stimulated PBL): 68% | inhibition at 50 µM ([5]; 50 μM, zymosan-stimulated PBL): 91% | Percentage of inhibition of cell growth ([6]; 12.5 μM): 0% | Percentage of inhibition of cell growth ([6]; 50 μM): 0% | inhibition at 10 µM ([7]; PHA, 10 μM): 2% | inhibition at 50 µM ([7]; PHA, 50 μM): 75% | inhibition at 10 µM ([7]; PMA + iono., 10 μM): 17% | inhibition at 50 µM ([7]; PMA + iono., 50 μM): 81%

CCC1OC(=O)C(C)C(OC2CC(C)(OC)C(OC(=O)CCN(CC)CC)C(C)O2)C(C)C(OC2OC(C)CC(N(C)C)C2O)C(C)(OC)CC(C)C(=O)NC(C)C(O)C1(C)O (stereo not drawn) [Example 8, 4″-O-(3-Diethylamino-propionyl)-6-O-methyl-9a-aza-9a-homoerythromycin A]
Percentage of inhibition of IL-6 production ([1]; 10 μM, LPS-stimulated PBL): 16% | Percentage of inhibition of IL-6 production ([1]; 10 μM, PMA-stimulated PBL): 24% | Percentage of inhibition of IL-6 production ([1]; 10 μM, zymosan-stimulated PBL): 57% | Percentage of inhibition of IL-6 production ([1]; 50 μM, LPS-stimulated PBL): 63% | Percentage of inhibition of IL-6 production ([1]; 50 μM, PMA-stimulated PBL): 100% | Percentage of inhibition of IL-6 production ([1]; 50 μM, zymosan-stimulated PBL): 80% | Percentage of inhibition of TNF-α production ([2]; 10 μM, LPS-stimulated PBL): 51% | Percentage of inhibition of TNF-α production ([2]; 10 μM, PMA-stimulated PBL): 46% | Percentage of inhibition of TNF-α production ([2]; 10 μM, zymosan-stimulated PBL): 87% | Percentage of inhibition of TNF-α production ([2]; 50 μM, LPS-stimulated PBL): 85% | Percentage of inhibition of TNF-α production ([2]; 50 μM, PMA-stimulated PBL): 87% | Percentage of inhibition of TNF-α production ([2]; 50 μM, zymosan-stimulated PBL): 92% | Percentage of inhibition of IL-8 production ([4]; 10 μM, LPS-stimulated PBL): 38% | Percentage of inhibition of IL-8 production ([4]; 10 μM, PMA-stimulated PBL): 40% | Percentage of inhibition of IL-8 production ([4]; 10 μM, zymosan-stimulated PBL): 31% | Percentage of inhibition of IL-8 production ([4]; 50 μM, LPS-stimulated PBL): 79% | Percentage of inhibition of IL-8 production ([4]; 50 μM, PMA-stimulated PBL): 89% | Percentage of inhibition of IL-8 production ([4]; 50 μM, zymosan-stimulated PBL): 88% | Percentage of inhibition of IL-1α production ([5]; 10 μM, LPS-stimulated PBL): 66% | Percentage of inhibition of IL-1α production ([5]; 10 μM, PMA-stimulated PBL): 71% | Percentage of inhibition of IL-1α production ([5]; 10 μM, zymosan-stimulated PBL): 86% | Percentage of inhibition of IL-1α production ([5]; 50 μM, LPS-stimulated PBL): 83% | Percentage of inhibition of IL-1α production ([5]; 50 μM, PMA-stimulated PBL): 86% | Percentage of inhibition of IL-1α production ([5]; 50 μM, zymosan-stimulated PBL): 94% | Percentage of inhibition of proliferation of stimulated PBMC ([7]; PHA, 10 μM): 96% | Percentage of inhibition of proliferation of stimulated PBMC ([7]; PHA, 50 μM): 100% | Percentage of inhibition of proliferation of stimulated PBMC ([7]; PMA + iono., 10 μM): 37% | Percentage of inhibition of proliferation of stimulated PBMC ([7]; PMA + iono., 50 μM): 99% | % inhibition of TNF-α production (plasma) [8]: 93%

CC[C@H]1OC(=O)[C@H](C)[C@@H](O[C@H]2C[C@@](C)(OC)[C@@H](OC(=O)CCN(CC)CC)[C@H](C)O2)[C@H](C)[C@@H](O[C@@H]2O[C@H](C)C[C@H](N(C)C)[C@H]2O)[C@](C)(OC)C[C@@H](C)C(=O)[C@H](C)[C@H]2NC(=O)O[C@@]21C [Example 9, 11,12-Carbamate-11,12-dideoxy-4″-O-(3-diethylamino-propionyl)-6-O-methyl-erythromycin A]
inhibition at 10 µM ([1]; 10 μM, LPS-stimulated PBL): 22% | inhibition at 10 µM ([1]; 10 μM, PMA-stimulated PBL): 30% | inhibition at 10 µM ([1]; 10 μM, zymosan-stimulated PBL): 0% | inhibition at 50 µM ([1]; 50 μM, LPS-stimulated PBL): 100% | inhibition at 50 µM ([1]; 50 μM, PMA-stimulated PBL): 95% | inhibition at 50 µM ([1]; 50 μM, zymosan-stimulated PBL): 100% | inhibition at 10 µM ([2]; 10 μM, LPS-stimulated PBL): 73% | inhibition at 10 µM ([2]; 10 μM, PMA-stimulated PBL): 93% | inhibition at 10 µM ([2]; 10 μM, zymosan-stimulated PBL): 14% | inhibition at 50 µM ([2]; 50 μM, LPS-stimulated PBL): 96% | inhibition at 50 µM ([2]; 50 μM, PMA-stimulated PBL): 85% | inhibition at 50 µM ([2]; 50 μM, zymosan-stimulated PBL): 72% | Percentage of inhibition of cell growth ([3]; 12.5 μM): 0% | Percentage of inhibition of cell growth ([3]; 50 μM): 0% | inhibition at 10 µM ([4]; 10 μM, LPS-stimulated PBL): 18% | inhibition at 10 µM ([4]; 10 μM, PMA-stimulated PBL): 0% | inhibition at 10 µM ([4]; 10 μM, zymosan-stimulated PBL): 0% | inhibition at 50 µM ([4]; 50 μM, LPS-stimulated PBL): 96% | inhibition at 50 µM ([4]; 50 μM, PMA-stimulated PBL): 94% | inhibition at 50 µM ([4]; 50 μM, zymosan-stimulated PBL): 91% | inhibition at 10 µM ([5]; 10 μM, LPS-stimulated PBL): 72% | inhibition at 10 µM ([5]; 10 μM, PMA-stimulated PBL): 69% | inhibition at 10 µM ([5]; 10 μM, zymosan-stimulated PBL): 82% | inhibition at 50 µM ([5]; 50 μM, LPS-stimulated PBL): 82% | inhibition at 50 µM ([5]; 50 μM, PMA-stimulated PBL): 72% | inhibition at 50 µM ([5]; 50 μM, zymosan-stimulated PBL): 0% | Percentage of inhibition of cell growth ([6]; 12.5 μM): 4% | Percentage of inhibition of cell growth ([6]; 50 μM): 15% | inhibition at 10 µM ([7]; PHA, 10 μM): 91% | inhibition at 50 µM ([7]; PHA, 50 μM): 100% | inhibition at 10 µM ([7]; PMA + iono., 10 μM): 17% | inhibition at 50 µM ([7]; PMA + iono., 50 μM): 100%
